According to publication PMC7602804 (Nutrients, 2020):

What was measured:
Caco-2 monolayers = assay: Apical to basolateral transport of milk peptides across Caco-2 monolayers (LC-MS/MS of basolateral medium); format: in vitro ADME, human; settings: A-B, HBSS + 10 mM HEPES, 2.5 h; for Peptide identified in the basolateral chamber of Caco-2 monolayers (transported): Caco-2, 3 weeks on PET inserts 0.4 μm, TEER above 400 Ω cm^2, mix of 192 purified milk peptides 0.1 mg/mL apical, LC-MS/MS of basolateral medium, identified in two out of three experiments; for Peptides identified in the basolateral chamber of Caco-2 monolayers after synthetic PIGSENSEKTTMPLW was added apically: synthetic PIGSENSEKTTMPLW 2 µg/mL apical, LC-MS/MS
Method: The human colorectal adenocarcinoma cell line, Caco-2, was obtained from DSMZ (Braunschweig, Germany). The cells were grown to 50–60% confluence in Dulbecco’s Modified Eagle Medium (DMEM) Glutamax cell culture medium, supplemented with 10% heat-inactivated fetal bovine serum, 100 units/mL of penicillin and 100 μg/mL of streptomycin (all from Invitrogen, Carlsbad, CA, USA) in a humidified 5% CO2/95% air atmosphere at 37 °C. The cells used in the experiments were between passages 30 and 40.
The Caco-2 cells used for transport studies were seeded in polyethylene terephthalate culture inserts, with a pore size of 0.4 μm and a growth area of 0.33 cm^2 at a density of approximately 25,000 cells/insert. The Caco-2 cells were grown for three weeks on the porous membrane before they were used for transepithelial transport. The integrity of the monolayers was confirmed by measuring the TEER using a Millicell ERS-2 volt ohmmeter. Only Caco-2 monolayers with TEER values above 400 Ω cm^2 were used for the transport analysis.
(§1) Following the TEER value measurement, the Caco-2 and PBEC monolayers were gently washed twice with phosphate-buffered saline, and the transport medium (Hanks’ Balanced Salt solution supplemented with 10 mM of HEPES) was added to the apical and basolateral compartments. The inserts were incubated for 15 min or 2.5 h with the purified milk peptides (0.1 mg/mL) or the synthetic PIGSENSEKTTMPLW peptide (2 µg/mL), after which medium from the apical and basolateral compartments were collected for liquid chromatography tandem mass spectrometry (LC-MS/MS) analysis. Inserts incubated with a medium without peptides served as the control in the transport experiments. Membrane integrity was validated by addition of D-[1-^14C]-Mannitol (3.5 µM, 56.8 mCi/mmol) (Perkin Elmer, Waltham, MA, USA) to the upper chamber of the culture inserts with or without milk peptides for 2.5 h. The passive permeability experiments were performed on four or five individual culture inserts. Basolateral samples were mixed with Ultima Gold liquid scintillation fluid (Perkin Elmer) and counted in a Tri-Carb 2810 TR scintillation counter (Perkin Elmer). The apparent permeability coefficient (Papp, cm/s) was determined as Papp = (dQ/dt)/(AC0) where dQ/dt is the steady state flux (cpm/s), A is the surface area of the cell culture insert membrane and C0 is the initial concentration in the apical compartment (cpm/mL).
LC-MS/MS analysis was performed on a TripleTOF 6600 mass spectrometer equipped with an Exigent nanoLC 415 system (AB Sciex, Les Ulis, France). All samples were micro-purified using 3 M Empore C18 discs packed in pipette tips. The lyophilized samples were dissolved in 0.1% formic acid, injected on a trap column (2 cm × 100 µm inner diameter) and separated on an analytical column packed in-house in a pulled emitter (15 cm × 75 µm inner diameter). All columns were packed with ReproSil-Pur C18-AQ 3 µm resin (courtesy of Dr. Marisch, Ammerbuch-Entringen, Germany). Peptides were eluted directly into the mass spectrometer with a linear gradient from 5 to 35% solvent B (0.1% formic acid in acetonitrile) for 20 min with a flowrate of 250 nL/min, followed after 10 min with 100% solvent B. Data files were converted to Mascot Generic Format using the Raw Converter (version 1.1.0.18) (http://fields.scripps.edu/rawconv/) or the AB Sciex MS Data Converter beta 1.1 (AB Sciex, Les Ulis, France). The generated peak lists were searched against the Bos taurus proteome (UniProt database, https://www.uniprot.org)) using an in-house Mascot search engine (Matrix Science, London, UK). The searches were made without specifying a protease and with oxidation (Met) and phosphorylation (ST) as variable modifications. Peptide tolerance was set to 10 ppm and MS/MS tolerance was set to 0.2 Da. […]

[1] = test system: porcine brain endothelial cell (PBEC) monolayers; assay: Apical to basolateral transport of milk peptides across porcine brain endothelial cell (PBEC) monolayers, blood-brain barrier model; format: in vitro ADME; settings: A-B, HBSS + 10 mM HEPES, 2.5 h, LC-MS/MS; for Peptide identified in the basal compartment (brain side) of the PBEC BBB model (transported): primary PBEC on polyester inserts 0.4 μm, astrocyte conditioned medium, TEER higher than 800 Ω cm^2, mix of 192 milk peptides 0.1 mg/mL apical, five independent studies, αS1 peptide 'or' its truncated peptides stated collectively; for Peptides identified in the basolateral chamber of PBEC monolayers after synthetic PIGSENSEKTTMPLW was added apically: synthetic PIGSENSEKTTMPLW 2 µg/mL apical
Method: Capillaries were isolated from the brain cortices of domestic pigs 5–6 months old as previously described. PBECs were cultured by plating the capillaries in T75 flasks coated with collagen IV (500 µg/mL) and fibronectin (100 µg/mL) in DMEM-F12 medium, supplemented with 10% plasma-derived serum (First Link, Wolverhampton, UK), heparin (15 U), 100 units/mL of penicillin and 100 µg/mL of streptomycin (PBEC growth medium), and cultured in an incubator with humidified 5% CO2/95% air at 37 °C. Puromycin (4 µg/mL) was added to the growth medium for the first three days to obtain a pure culture of PBECs.
Astrocyte conditioned medium was collected every third day from primary rat astrocytes, sterile filtered and frozen until use. Isolation of primary rat astrocytes and preparation of astrocyte conditioned media were carried out as described in [20].
PBECs were grown until 70–80% confluency as described above and then passaged onto polyester culture inserts with a pore size of 0.4 μm and a growth area of 1.12 cm^2 (Costar, Corning, NY, USA) at a density of 1.1 × 10^5 cells/cm^2 in the PBEC growth medium. In the basolateral chamber, the medium consisted of 1 mL of PBEC growth medium and 0.5 mL of astrocyte conditioned medium. The medium was supplemented with differentiation factors: 550 nM of hydrocortisone, 250 μM of 8-(4-chlorophenylthio)adenosine-3′,5′-cyclic monophosphate (cAMP) and 17.5 μM of RO-201724 two days after seeding. The next day, the integrity of the PBEC monolayer was confirmed by measuring the TEER. Only PBEC monolayers with TEER values higher than 800 Ω cm^2 were used for the transport analysis.
as §1
LC-MS/MS analysis was performed on a TripleTOF 6600 mass spectrometer equipped with an Exigent nanoLC 415 system (AB Sciex, Les Ulis, France). All samples were micro-purified using 3 M Empore C18 discs packed in pipette tips. The lyophilized samples were dissolved in 0.1% formic acid, injected on a trap column (2 cm × 100 µm inner diameter) and separated on an analytical column packed in-house in a pulled emitter (15 cm × 75 µm inner diameter). All columns were packed with ReproSil-Pur C18-AQ 3 µm resin (courtesy of Dr. Marisch, Ammerbuch-Entringen, Germany). […]

[2] = test system: pepsin, then trypsin, chymotrypsin and elastase; assay: In vitro simulation of gastrointestinal digestion; format: in vitro ADME; settings: 1 mg/mL, pepsin 1:100 w/w, 0.15 M NaCl pH 2.5, 60 min, 37 °C, chymotrypsin 1:100 and elastase 1:500 w/w, 50 mM ammonium bicarbonate pH 7.6, 37 °C, sampled 5, 30, 60 and 270 min, MALDI-MS (osteopontin: SDS-PAGE)
Method: The purified milk peptides and the synthesized PIGSENSEKTTMPLW and […] peptides were subjected to digestion, essentially as described in [5, 26] with few modifications. The peptides were dissolved in 0.15 M of NaCl with a pH of 2.5 at a concentration of 1 mg/mL and incubated with pepsin from porcine gastric mucosa in a 1:100 w/w enzyme to substrate ratio for 60 min at 37 °C. Before digestion with pancreatic proteases, the sample was lyophilized and washed twice in deionized water. Trypsin and chymotrypsin from a bovine pancreas (Worthington Biochemical Corporation, NJ, USA) (1:100 w/w) and elastase (Worthington) (1:500 w/w) were added in 50 mM of ammonium bicarbonate buffer (pH = 7.6) and the mixture was incubated for 60 min at 37 °C. In digests of the synthesized peptides, aliquots were sampled and analyzed after 5 min, 30 min, 60 min and 270 min incubation with the intestinal enzymes. Bovine milk osteopontin was purified as previously described and incubated with the digestive proteases to validate their activity. The digested milk peptides were separated by RP-HPLC on an Aeris C4 widepore column (Phenomenex, Værløse, Denmark) connected to a Shimadzu (Kyoto, Japan) HPLC system. The peptides were separated in 0.1% TFA (buffer A) and eluted with a gradient of 60% acetonitrile in 0.1% TFA (buffer B) at 40 °C. The gradient was developed over 59 min (0–5 min: 0% buffer B; 5–49 min: 0–98% buffer B; 49–59 min: 98% buffer B) at a flow rate of 0.85 mL/min. The peptides were detected by measuring the absorbance at 226 nm and analyzed by matrix-assisted laser desorption ionization time-of-flight mass spectrometry (MALDI-MS).
MALDI-MS was performed using a Bruker Autoflex III instrument (Bruker Daltonics, Bremen, Germany). The analysis was performed using a saturated solution of α-cyano-4-hydroxycinnamic acid. The instrument was operated in reflected positive ionization mode and calibrated in the mass range of 1000 to 3200 Da using a peptide calibration standard (Bruker Daltonics, Bremen, Germany). The theoretical peptide masses were calculated using the General Protein/Mass Analysis for Windows software (Lighthouse Data, Odense, Denmark).

[3] = test system: pepsin from porcine gastric mucosa, then trypsin and chymotrypsin from a bovine pancreas and elastase; assay: synthetic peptide: pepsin in 0.15 M NaCl pH 2.5 (1:100 w/w, 60 min), then trypsin, chymotrypsin (1:100 w/w) and elastase (1:500 w/w) in 50 mM ammonium bicarbonate pH 7.6; settings: 37 °C, up to 270 min

Row | Substance | Peptide identified in the basolateral chamber of Caco-2 monolayers (transported) (Caco-2 monolayers) | Peptide identified in the basal compartment (brain side) of the PBEC BBB model (transported) [1] | further results
1 | AAPAGAAIQS [endogenous bovine milk peptide from the polymeric immunoglobulin receptor] | not transported across the Caco-2 monolayers | identified in the basal compartment of the BBB model | –
2 | AAPAGAAIQSR [endogenous bovine milk peptide from the polymeric immunoglobulin receptor] | not transported across the Caco-2 monolayers | identified in the basal compartment of the BBB model | –
3 | Ac-YDGRGDSVVYGLRSKSKKFRR-NH2 [reference compound] | – | – | Stability of the synthetic peptide / control in simulated gastrointestinal digestion [2]: cleaved after 5 min incubation with the proteases
4 | EVIESPPEINTVQVTSTAV [endogenous bovine milk peptide from κ-casein] | identified in the basolateral chamber | – | –
5 | KNTMEHVSSSEESIISQETY [endogenous bovine milk peptide from αS2-casein] | identified in the basolateral chamber | – | –
6 | PIGSENSEKTT [truncated derivative of the αS1-casein peptide …] | – | identified in all experiments | Peptides identified in the basolateral chamber of Caco-2 monolayers after synthetic PIGSENSEKTTMPLW was added apically (Caco-2 monolayers): identified in the basolateral chamber of both monolayers; Peptides identified in the basolateral chamber of PBEC monolayers after synthetic PIGSENSEKTTMPLW was added apically [1]: identified in the basolateral chamber of both monolayers
7 | PIGSENSEKTTMP [truncated derivative of the αS1-casein peptide …] | identified in the basolateral chamber | identified in all experiments | Peptides identified in the basolateral chamber of Caco-2 monolayers after synthetic PIGSENSEKTTMPLW was added apically (Caco-2 monolayers): identified in the basolateral chamber of both monolayers; Peptides identified in the basolateral chamber of PBEC monolayers after synthetic PIGSENSEKTTMPLW was added apically [1]: identified in the basolateral chamber of both monolayers
8 | PVLGPVRGPFPIIV [endogenous bovine milk peptide from β-casein] | not transported across the Caco-2 monolayers | identified in the basal compartment of the BBB model | –
9 | YDGRGDSVVYGLRSKSKKFRR (N-terminally acetylated and amidated at the C terminal) | – | – | fragment found [3]: YDGRGDSVVY, 5 min
10 | osteopontin: bovine milk osteopontin, purified, incubated with the digestive proteases to validate their activity [reference compound] | – | – | Stability of the synthetic peptide / control in simulated gastrointestinal digestion [2]: cleaved by all the proteases
